According to publication PMC8879702, “Discovery of Small Molecule Activators of Chemokine Receptor CXCR4 That Improve Diabetic Wound Healing” (International Journal of Molecular Sciences, 2022):

How the values were obtained:
Type in all cases: cell-based
CXCR4 receptor [1] = target: T1, CXCR4 receptor (Homo sapiens, UniProt P61073); assay: primary 1536 w β-arrestin recruitment assay (CXCR4-bla U2OS cells, SDF-1α from R&D systems); design: host or cells: Tango CXCR4-bla U2OS cells; conditions: for Emax: U2OS
Experimental: In our effort to identify CXCR4 activators from the NIH Molecular Library Small Molecule Repository (MLSMR), we developed a primary screening assay to measure β-arrestin recruitment to the activated G-protein coupled receptor (GPCR) by a Florescence Resonance Energy Transfer (FRET) in U2OS cells, overexpressing the CXCR4 receptor engineered with a β-lactamase (bla) reporter system. CXCR4-bla cells plated in 1536 w were stimulated in the presence of 10 µM compound concentration. […] Using this approach, we successfully screened the NIH MLSMR of 370,620 compounds (Figure 1A,B) and identified 303 hits (hit rate = 0.08%). […] These compounds were graded according to activity and structure, resulting in 86 compounds that met the criteria as potential CXCR4 agonists for further characterization (Figure 1B). The workflow for high-throughput screening and this study is illustrated in Figure 1B.
Chemical stability, synthetic tractability, solubility and complete dose response and potency criteria led to the prioritization of the 5-aryl-2-cyclopropyl oxazole scaffold, represented by primary hit Compound 2 (Table 1). The early structure–activity relationship was established around the 5-aryl-2-cyclopropyl oxazole core with commercially available analogs with diverse substituents in the sulfonanilide ring of the scaffold. […] Keeping the 2-OMe substituent constant, we screened a small set of electron withdrawing and electron rich substituents at the 5-position of the anilide ring (entries 16–19). […] The analytical data for UCUF-728 is shown in Supplemental Figures S1–S4.

CEM-CCRF cells = assay: 96 wells transwell migration assay in CEM human lymphoblast cells
Source text: Thus, to confirm CXCR4 functional activity, we evaluated UCUF-728 in a 96 wells transwell migration assay in CEM human lymphoblast cells. […] (Supplemental Figure S7). From the analog structure–activity relationship studies and characterization studies in the chemotaxis assay, cAMP signaling and CXCR4 binding assay, we identified UCUF-728 as a potent and functionally selective CXCR4 receptor modulator.
CEM-CCRF (ATCC CCL-119) were suspended in RPMI 1640 (Corning; 10-040-CV) at 5.0 × 10^5 cells/mL and allowed to incubate in cell culture incubator at 37 °C with 5% CO2 for one hour. […] Following 1 h cell incubation and compound dispensing, 150 μL of RPMI 1640 supplemented with 2% Fetal Bovine Serum was added to each well of the compound receiver tray, and 50 μL of 5 × 10^5 cells/mL cell suspension in RPMI were added to each well of the top filter plate. Plates were reassembled and placed in a cell culture incubator at 37 °C with 5% CO2 for three hours. After incubation, Multi-Screen plate was disassembled and 100 μL of solution was collected from compound receiver tray and transferred to 96 well luminescent plate and an equal volume of ATPLite 1step luminescence reagent (Perkin Elmer, Waltham, MA, USA) was added to each well. Luminescence was measured using the CLARIOstar Plus (BMG LABTECH Inc., Cary, NC, USA).

CXCR4 receptor [2] = target: T1, CXCR4 receptor; assay: cAMP signaling assay, forskolin-induced, PathHunter CHO-K1 CXCR4 cells
Experimental: The CXCR4 receptor is a G-protein coupled receptor (GPCR) coupled to the Gi class, whose primary role is inhibition of adenylate cyclase. We tested the ability of UCUF-728 to induce a Gi-mediated cAMP-inhibitory cellular response. […] (Figure 2B).
Forskolin at final concentration of 0.5 mM was added to all wells using the TECAN dispenser. […] of PathHunter CHO-K1 CXCR4 cells (DiscoverX, Fremont, CA, USA) were added to compounds at 3000 cells/well, centrifuged at 1000 rpm for 30 s and incubated for 30 min at room temperature. DMSO (Sigma Aldrich, St. Louis, MO, USA) was normalized to 0.5%. […] of 4X Eu-cAMP tracer working solution were added to all wells, followed by addition of 5 μL of 4X Ulight-anti-cAMP working solution to all wells. Plates were centrifuged at 1000 rpm for 1 min and incubated for 1 h at room temperature, then read using CLARIOstar Plus (BMG LABTECH Inc., Cary, NC, USA) Lance CAMP protocol.

T1 sequence (P61073 whole entry): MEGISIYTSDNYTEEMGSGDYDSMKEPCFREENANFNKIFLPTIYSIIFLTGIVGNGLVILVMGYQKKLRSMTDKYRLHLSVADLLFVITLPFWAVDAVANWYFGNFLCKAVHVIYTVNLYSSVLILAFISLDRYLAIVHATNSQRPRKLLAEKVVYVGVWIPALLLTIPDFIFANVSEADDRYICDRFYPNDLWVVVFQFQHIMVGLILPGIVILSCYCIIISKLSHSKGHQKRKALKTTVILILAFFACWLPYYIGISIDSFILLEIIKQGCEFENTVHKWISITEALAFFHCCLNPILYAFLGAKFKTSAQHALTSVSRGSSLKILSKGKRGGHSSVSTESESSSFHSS

EC50 (CXCR4 receptor [1]) [µM] | Emax (CXCR4 receptor [1]) [%] | Compound | other results
0.6 | 45 | Cc1cccc(C)c1NS(=O)(=O)c1ccc(-c2cnc(C3CC3)o2)cc1 [Compound 14] | –
– | – | c1cc(CN2CCCNCCNCCCNCC2)ccc1CN1CCCNCCNCCCNCC1 [AMD3100, reference compound] | IC50 (CEM-CCRF cells; Homo sapiens, normalized to media only and 6nM SDF-1a, read-out: logIC50 inhibition of migration (converted)): 0.0316 µM; block of SDF-1α inhibition of forskolin-induced cAMP (CXCR4 receptor [2]; maximal response at 40 nM SDF-1α): dose-dependently blocked
1.9 | 40 | Cc1cccc(NS(=O)(=O)c2ccc(-c3cnc(C4CC4)o3)cc2)c1C [Compound 10] | –
0.7 | 42 | Cc1ccc(C)c(NS(=O)(=O)c2ccc(-c3cnc(C4CC4)o3)cc2)c1 [Compound 13] | –
1.65 | 47 | COc1ccc(Cl)cc1NS(=O)(=O)c1ccc(-c2cnc(C3CC3)o2)cc1 [Compound 16] | –
> 80 | – | COc1cccc(NS(=O)(=O)c2ccc(-c3cnc(C4CC4)o3)cc2)c1 [Compound 8] | –
5.9 | 27 | Cc1ccccc1NS(=O)(=O)c1ccc(-c2cnc(C3CC3)o2)cc1 [Compound 2] | –
> 80 | – | O=S(=O)(Nc1ccccc1F)c1ccc(-c2cnc(C3CC3)o2)cc1 [Compound 7] | –
1 | 46 | CCOc1ccccc1NS(=O)(=O)c1ccc(-c2cnc(C3CC3)o2)cc1 [Compound 5] | –
> 10 | – | Cc1ccc(NS(=O)(=O)c2ccc(-c3cnc(C4CC4)o3)cc2)cc1C [Compound 11] | –
2.6 | 38 | CCc1ccccc1NS(=O)(=O)c1ccc(-c2cnc(C3CC3)o2)cc1 [Compound 3] | –
> 80 | – | COc1ccc(NS(=O)(=O)c2ccc(-c3cnc(C4CC4)o3)cc2)cc1OC [Compound 20] | –
3.1 | 39 | Cc1cc(C)cc(NS(=O)(=O)c2ccc(-c3cnc(C4CC4)o3)cc2)c1 [Compound 15] | –
5.6 | 48 | COc1cc(NS(=O)(=O)c2ccc(-c3cnc(C4CC4)o3)cc2)cc(OC)c1 [Compound 21] | –
> 80 | – | O=S(=O)(Nc1ccccc1)c1ccc(-c2cnc(C3CC3)o2)cc1 [Compound 1] | –
44.3 | 38 | CCOc1ccc(NS(=O)(=O)c2ccc(-c3cnc(C4CC4)o3)cc2)cc1 [Compound 9] | –
6.1 | 45 | COc1ccccc1NS(=O)(=O)c1ccc(-c2cnc(C3CC3)o2)cc1 [Compound 4] | –
7.3 | 42 | COc1ccc(F)cc1NS(=O)(=O)c1ccc(-c2cnc(C3CC3)o2)cc1 [Compound 17] | –
0.9 | 48 | COc1ccc(C)cc1NS(=O)(=O)c1ccc(-c2cnc(C3CC3)o2)cc1 [Compound 18] | –
– | – | SDF-1α | induction of cell migration (CEM-CCRF cells; compound in lower channel, 3 h): induced migration in the typical bell-shaped curve; inhibition of forskolin-induced adenylate cyclase (cAMP signaling) (CXCR4 receptor [2]; CHO-K1 CXCR4 overexpressed cells): inhibited forskolin-induced adenylate cyclase
3.4 | 38 | Cc1ccc(NS(=O)(=O)c2ccc(-c3cnc(C4CC4)o3)cc2)c(C)c1 [Compound 12] | –
22 | 35 | O=S(=O)(Nc1ccccc1Cl)c1ccc(-c2cnc(C3CC3)o2)cc1 [Compound 6] | –
